The results in this text go back to patent US9415034B2, “Inhibitors and enhancers of uridine diphosphate-glucuronosyltransferase 2B (UGT2B)” (NATIONAL DEFENSE MEDICAL CENTER, priority 2005, dated 2016).

The data set concerns UGT2B. The experiment in a line: Measurement of the inhibition of UGT2B activity in vitro (metabolism of nalbuphine in liver microsome, HPLC). How it is done: In the following experiment, 27 different kinds of CHEs and 10 different excipients were used as UGT2B inhibitor in this invention. These CHEs are pure compounds available commercially, and were purchased from Sigma Chemical Co., Nacalai Tesque (Kyoto, Japan) and Indofine Chemical Co., Inc. (Somerville, N.J.). These UGT2B inhibitors are dissolved in alcohol at the concentration of 1, 10, 100 μM for the following experiment.
These excipients are dissolved in water and make up to 0.5%, 5%, 50% (wt %, w/v) for the following experiment. (Note: BRIJ is a registered trademark of ICI Americas, Inc.; Pluronic is a registered trademark of BASF Corporation.)
The Sprague-Dawley male rats, weighted 300-400 g are used as model animals in these experiments. The microsome is prepared as follows: • i. Sacrifice a rat after 12-16 hours fasting, take its liver; wipe dry the liver and weigh it. • ii. Add 300% (by volume) of cold 0.3M sucrose solution, and homogenize the liver. • iii. Centrifuge the homogenized liver suspension at 9000×g speed (KS-800, Kubota, made in Japan) for 10 min at 4° C. Collect the supernatant. • iv. Centrifuge the supernatant at 105,000×g speed (L8-60M, Beckman, made in USA) for 60 min at 4° C. • v. Remove the supernatant, add 0.3M sucrose (of the same volume) and repeat the homogenization. The homogenized liver suspension is the microsome. Store the microsome at −70° C.
Thaw the microsome before use. Add 5 μl/ml BRIJ®35 (Fisher et al. 2000, Drug Metabolism & Disposition. 28(5):560-6) into microsome by a ratio of microsome:BRIJ®35=8:1 (v/v).
The protein amount is determined as follows: • i. Take 0.1 ml microsome and dilute to 5 ml 0.85% NaCl (50-fold dilution, v/v). Take 0.2 ml of the diluted microsome and place it in a capped test tube (triple experiments). Separately, replacing microsome with 0.2 ml NaCl as the control. • ii. Add 2.2 ml Biuret regent (SIGMA, 690-A) into each test tube, mix well and store at room temperature for 10 min. • iii. Add 0.1 ml folin regent (SIGMA, 690-A), mix immediately, and store at room temperature for 30 min. Measure the absorbance at 550 nm wave length within the 30 min. Measure the concentration of protein in microsome based on the standard curve generated by various bovine albumin concentration and absorbance. 4. The Measurement of the Inhibition of UGT2B Activity in vitro • i. […] Mix solution (A) and 17 μl solution (B) thoroughly, place in a 37° C. water bath and shake at 125 rpm for 60 min. • iii. Add 1 ml ACN to interrupt the reaction. • iv. Centrifuge at 130,000×g speed at 4° C. for 5 min, and • v. […] 5.
Set the Ultra-violet detector's (SPD-10A, Shimadzu, Kyoto, made in Japan) wave length to 210 nm.
Those CHEs are commercially available pure compounds, acquired from Sigma Chemical Co., Nacalai Tesque (Kyoto, Japan) and […] (Somerville, N.J.). Their categories, names, sources, and chemical compositions are described in Table 5.

[1] abbreviates: Table 6, enhancer 8.5 μM, negative = enhancement.
[2] abbreviates: Table 6, enhancer 85 μM, negative = enhancement.
The mark [3] stands for this setting: Table 6, enhancer 850 μM, negative = enhancement.
The mark [4] stands for this setting: male, Sprague-Dawley, rat, % Inhibition (Mean ± SD).
The mark [5] stands for this setting: male, Sprague-Dawley, rat, 60 min, 8.5 μM.
Setting [6] is: male, Sprague-Dawley, rat, 60 min, 85 μM.
[7] abbreviates: male, Sprague-Dawley, rat, 60 min, 850 μM.

Each structure is given as a SMILES string.

With `C[C@@H]1O[C@@H](Oc2c(-c3ccc(O)c(O)c3)oc3cc(O)cc(O)c3c2=O)[C@H](O)[C@H](O)[C@H]1O` [quercitrin, Quercitrin], the “% Inhibition (Mean ± SD)” value under setting [1] was −81.27 ± 15.027%, the “% Inhibition (Mean ± SD)” value under setting [2] was −83.60 ± 27.446% and the “% Inhibition (Mean ± SD)” value under setting [3] is −55.57 ± 12.151%.

Regarding `O=c1cc(-c2ccc(O)c(O)c2)oc2cc(O)cc(O)c12` [luteolin, Luteolin], under setting [4], the inhibition at 60 min, 8.5 μM was -25.5 ± 26.6%; the inhibition at 60 min, 85 μM was -28.3 ± 15.2%; the inhibition at 60 min, 850 μM is -17.6 ± 12.1%.

As for `O=c1cc(-c2ccccc2)oc2cc(O)c(O)c(O)c12` [baicalein], under setting [4], the inhibition at 60 min, 8.5 μM is -99.6 ± 12.8%; the inhibition at 60 min, 85 μM was -125 ± 8.62%; the inhibition at 60 min, 212.5 μM was -146 ± 8.47%.

For `COc1cc(-c2oc3cc(O)cc(O)c3c(=O)c2O)ccc1O` [isorhamnetin, Isorhamnetin], for the setting “male, Sprague-Dawley, rat”, the inhibition at 60 min is no less than 30%; the inhibition at 60 min, 8.5 µM stood at 88.4 ± 11.6%; the inhibition at 60 min, 85 µM was determined as 85.1 ± 14.7%; the inhibition at 60 min, 850 µM turned out to be 107 ± 8.1%.

With `CCCCCCCCCCCCCC(=O)OCC` [ethyl myristate, Ethyl Myristate], under setting [4], the inhibition at 60 min, 8.5 µM was -27.8 ± 14.7%; the inhibition at 60 min, 8.5 μM was -27.8 ± 14.7%; the inhibition at 60 min, 85 µM was -12.1 ± 5.71%; the inhibition at 60 min, 85 μM is -12.1 ± 5.71%. In addition, under setting [4], the inhibition at 60 min, 850 µM came to 6.33 ± 1.48% and the inhibition at 60 min, 850 μM stood at 6.33 ± 1.48%.

As to `O=c1c(-c2ccc(O)cc2)coc2c([C@@H]3O[C@H](CO)[C@@H](O)[C@H](O)[C@H]3O)c(O)ccc12` [puerarin, Puerarin], under setting [4], the inhibition at 60 min, 8.5 µM was 3.92 ± 5.61%; the inhibition at 60 min, 85 µM was found to be 18.3 ± 7.68%; the inhibition at 60 min, 850 µM worked out at 10.1 ± 5.84%.

With `C[C@@H]1O[C@@H](OC[C@H]2O[C@@H](Oc3c(-c4ccc(O)c(O)c4)oc4cc(O)cc(O)c4c3=O)[C@H](O)[C@@H](O)[C@@H]2O)[C@H](O)[C@H](O)[C@H]1O` [rutin, Rutin], the “% Inhibition (Mean ± SD)” value reads like this: under setting [1], −19.854 ± 19.742%; under setting [2], −29.414 ± 29.485%; under setting [3], −33.458 ± 13.373%.

As to `COc1c(O)cc2oc(Oc3ccc(O)cc3)cc(=O)c2c1O` [capillarisin, Capillarisin], under setting [4], the inhibition at 60 min, 8.5 µM stood at 111 ± 21.8%; the inhibition at 60 min, 85 µM is 105 ± 21.8%; the inhibition at 60 min, 850 µM was 105 ± 19.3%. For the setting “male, Sprague-Dawley, rat, inhibition rate on the metabolism of nalbuphine in microsome”, the inhibition at 60 min was found to be 111%.

For the compound `O=c1ccc2ccc(O)cc2o1` [umbelliferone, Umbelliferone], under setting [4], the inhibition at 60 min, 8.5 µM is -14.7 ± 5.81%; the inhibition at 60 min, 8.5 μM is -14.7 ± 5.81%; the inhibition at 60 min, 85 µM is 4.6 ± 8.24%; the inhibition at 60 min, 85 μM was 4.6 ± 8.24%. Also, under setting [4], the inhibition at 60 min, 850 µM was -20.6 ± 18.2% and the inhibition at 60 min, 850 μM was -20.6 ± 18.2%.

In the case of `COc1ccc([C@@H]2CC(=O)c3c(O)cc(O[C@@H]4O[C@H](CO[C@@H]5O[C@@H](C)[C@H](O)[C@@H](O)[C@H]5O)[C@@H](O)[C@H](O)[C@H]4O)cc3O2)cc1O` [hesperidin, Hesperidin], under setting [4], the inhibition at 60 min, 8.5 μM came to 2.16 ± 2.73%; the inhibition at 60 min, 85 μM was -32 ± 10.3%; the inhibition at 60 min, 850 μM was -42 ± 4.25%.

For the compound `Oc1cc(O)c2c(c1)OC(c1ccc(O)c(O)c1)[C@@H](O)C2` (single isomer, unassigned; (+)) [(+)-epicatechin, (+)-Epicatechin], the “% Inhibition (Mean ± SD)” value is, setting by setting: under setting [5], −32.553 ± 1.578%; under setting [6], −47.075 ± 0.533%; under setting [7], −8.118 ± 1.256%.

Take `O=c1cc(-c2ccc(O)cc2)oc2cc(O)c([C@@H]3O[C@H](CO)[C@@H](O)[C@H](O)[C@H]3O)c(O)c12` [isovitexin, Isovitexin]: the “% Inhibition (Mean ± SD)” value is reported as 29.821 ± 9.786% (Table 2, inhibitor 8.5 μM, metabolism of nalbuphine in rat liver microsome); −5.528 ± 9.096% (Table 2, inhibitor 85 μM, metabolism of nalbuphine in rat liver microsome); −12.377 ± 8.912% (Table 2, inhibitor 850 μM, metabolism of nalbuphine in rat liver microsome); 29.821 ± 9.786% under setting [1]; −5.528 ± 9.096% under setting [2]; −12.377 ± 8.912% under setting [3].

In the case of `O=c1cc(-c2ccc(O)cc2)oc2cc(O)cc(O)c12` [apigenin, Apigenin], under setting [4], the inhibition at 60 min, 8.5 µM was -26.7 ± 13.1%; the inhibition at 60 min, 8.5 μM is -26.7 ± 13.1%; the inhibition at 60 min, 85 µM was determined as 54 ± 15.8%; the inhibition at 60 min, 85 μM was determined as 54 ± 15.8%. Also, under setting [4], the inhibition at 60 min, 850 µM was -16.1 ± 17.9% and the inhibition at 60 min, 850 μM was -16.1 ± 17.9%.

Take `O=C(O)c1ccc(O)c(O)c1` [protocatechuic acid, Protocatechuic acid]: under setting [4], the inhibition at 60 min, 8.5 µM was -20.2 ± 5.96%; the inhibition at 60 min, 8.5 μM was -20.2 ± 5.96%; the inhibition at 60 min, 85 µM was -4.56 ± 3.37%; the inhibition at 60 min, 85 μM is -4.56 ± 3.37%. Under setting [4], the inhibition at 60 min, 850 µM is 9.84 ± 1.87% and the inhibition at 60 min, 850 μM was 9.84 ± 1.87%.

As for `COc1ccc([C@@H]2CC(=O)c3c(O)cc(O[C@@H]4O[C@H](CO)[C@@H](O)[C@H](O)[C@H]4O[C@@H]4O[C@@H](C)[C@H](O)[C@@H](O)[C@H]4O)cc3O2)cc1` [poncirin, Poncirin], the “% Inhibition (Mean ± SD)” value under setting [1] is −16.068 ± 8.122%, the “% Inhibition (Mean ± SD)” value under setting [2] is −8.448 ± 8.261% and the “% Inhibition (Mean ± SD)” value under setting [3] is −7.098 ± 18.196%.

As to `O=c1c(O)c(-c2ccc(O)c(O)c2)oc2cc(O)cc(O)c12` [quercetin, Quercetin], under setting [4], the inhibition at 60 min, 8.5 μM is -81.4 ± 5.59%; the inhibition at 60 min, 85 μM was -143 ± 18.5%; the inhibition at 60 min, 850 μM is -119 ± 19.4%.

In the case of `COc1c(O)cc(O)c2c(=O)cc(-c3ccccc3)oc12` [wogonin, Wogonin], under setting [4], the inhibition at 60 min, 8.5 μM was -129 ± 8.29%; the inhibition at 60 min, 85 μM is -153 ± 6.49%; the inhibition at 60 min, 850 μM was -136 ± 2.88%.

For `Oc1cc(O)c2c(c1)OC(c1ccc(O)c(O)c1)[C@@H](O)C2` (single isomer, unassigned; (-)) [(−)-epicatechin, (−)-Epicatechin], the “% Inhibition (Mean ± SD)” value is given as −28.68 ± 17.634% under setting [5], −23.53 ± 27.304% under setting [6] and −48.35 ± 39.354% under setting [7].

For `O=c1c(O[C@@H]2O[C@H](CO)[C@@H](O)[C@H](O)[C@H]2O)c(-c2ccc(O)c(O)c2)oc2cc(O)cc(O)c12` [isoquercitrin, Isoquercitrin], the “% Inhibition (Mean ± SD)” value reads like this: under setting [1], −8.089 ± 2.404%; under setting [2], −19.119 ± 21.887%; under setting [3], −71.696 ± 20.468%.

For the compound `CC1(C)CC[C@]2(C(=O)O)CC[C@]3(C)C(=CC[C@@H]4[C@@]5(C)CC[C@H](O)C(C)(C)[C@@H]5CC[C@]43C)[C@@H]2C1` [oleanolic acid, Oleanolic Acid], the inhibition at 60 min, 8.5 μM (male, Sprague-Dawley, rat, liver microsomes, probe nalbuphine, % Inhibition (Mean ± SD), Table 6, enhancer 8.5 μM, negative = enhancement) was -87.2 ± 24.4%. In addition, the inhibition at 60 min, 85 μM (male, Sprague-Dawley, rat, liver microsomes, probe nalbuphine, % Inhibition (Mean ± SD), Table 6, enhancer 85 μM, negative = enhancement) was -136 ± 15.2%. Under “male, Sprague-Dawley, rat, liver microsomes, probe nalbuphine, % Inhibition (Mean ± SD), Table 6, enhancer 850 μM, negative = enhancement”, the inhibition at 60 min, 850 μM was -129 ± 22.1%.

Take `Oc1cc(O)c2c(c1)OC(c1ccc(O)c(O)c1)[C@@H](O)C2` (single isomer, unassigned; (+)) [(+)-catechin, (+)-Catechin]: under setting [4], the inhibition at 60 min, 8.5 μM was -68.4 ± 7.34%; the inhibition at 60 min, 85 μM was -54.8 ± 9.38%; the inhibition at 60 min, 850 μM was -65.3 ± 47%.

Turning to `O=c1cc(-c2ccc(O)c(O)c2)oc2cc(O[C@@H]3O[C@H](CO)[C@@H](O)[C@H](O)[C@H]3O)cc(O)c12` [luteolin-7-glucoside, Luteolin-7-Glucoside], the “% Inhibition (Mean ± SD)” value reads like this: under setting [1], −45.053 ± 3.583%; under setting [2], −36.109 ± 9.203%; under setting [3], −47.869 ± 26.599%.

The term inhibition denotes the drop in the measured response relative to a control, in per cent.
